{"source": "patent US5902787A", "about": "“Chemically modified a-macroglobulins, methods of making, and methods of using the same in anti-cytokine therapy” (The University of Virginia Patent Foundation, priority 1997, dated 1999)", "molecules": {"B1": {"name": "native murine α2 M: α2-macroglobulin purified from the plasma of CD-1 female mice, native form (protein, UniProt Q61838 25-1495, looked up)", "Pregnancy zone protein": "ATAKPQYVVLVPSEVYSGVPEKACVSLNHVNETVMLSLTLEYAMQQTKLLTDQAVDKDSFYCSPFTISGSPLPYTFITVEIKGPTQRFIKKKSIQIIKAESPVFVQTDKPIYKPGQIVKFRVVSVDISFRPLNETFPVVYIETPKRNRIFQWQNIHLAGGLHQLSFPLSVEPALGIYKVVVQKDSGKKIEHSFEVKEYVLPKFEVIIKMQKTMAFLEEELPITACGVYTYGKPVPGLVTLRVCRKYSRYRSTCHNQNSMSICEEFSQQADDKGCFRQVVKTKVFQLRQKGHDMKIEVEAKIKEEGTGIELTGIGSCEIANALSKLKFTKVNTNYRPGLPFSGQVLLVDEKGKPIPNKNITSVVSPLGYLSIFTTDEHGLANISIDTSNFTAPFLRVVVTYKQNHVCYDNWWLDEFHTQADHSATLVFSPSQSYIQLELVFGTLACGQTQEIRIHYLLNEDIMKNEKDLTFYYLIKARGSIFNLGSHVLSLEQGNMKGVFSLPIQVEPGMAPEAQLLIYAILPNEELVADAQNFEIEKCFANKVNLSFPSAQSLPASDTHLKVKAAPLSLCALTAVDQSVLLLKPEAKLSPQSIYNLLPGKTVQGAFFGVPVYKDHENCISGEDITHNGIVYTPKHSLGDNDAHSIFQSVGINIFTNSKIHKPRFCQEFQHYPAMGGVAPQALAVAASGPGSSFRAMGVPMMGLDYSDEINQVVEVRETVRKYFPETWIWDLVPLDVSGDGELAVKVPDTITEWKASAFCLSGTTGLGLSSTISLQAFQPFFLELTLPYSVVRGEAFTLKATVLNYMSHCIQIRVDLEISPDFLAVPVGGHENSHCICGNERKTVSWAVTPKSLGEVNFTATAEALQSPELCGNKLTEVPALVHKDTVVKSVIVEPEGIEKEQTYNTLLCPQDTELQDNWSLELPPNVVEGSARATHSVLGDILGSAMQNLQNLLQMPYGCGEQNMVLFVPNIYVLNYLNETQQLTEAIKSKAINYLISGYQRQLNYQHSDGSYSTFGNHGGGNTPGNTWLTAFVLKAFAQAQSHIFIEKTHITNAFNWLSMKQKENGCFQQSGYLLNNAMKGGVDDEVTLSAYITIALLEMPLPVTHSAVRNALFCLETAWASISQSQESHVYTKALLAYAFALAGNKAKRSELLESLNKDAVKEEDSLHWQRPGDVQKVKALSFYQPRAPSAEVEMTAYVLLAYLTSESSRPTRDLSSSDLSTASKIVKWISKQQNSHGGFSSTQDTVVALQALSKYGAATFTRSQKEVLVTIESSGTFSKTFHVNSGNRLLLQEVRLPDLPGNYVTKGSGSGCVYLQTSLKYNILPVADGKAPFALQVNTLPLNFDKAGDHRTFQIRINVSYTGERPSSNMVIVDVKMVSGFIPMKPSVKKLQDQPNIQRTEVNTNHVLIYIEKLTNQTLGFSFAVEQDIPVKNLKPAPIKVYDYYETDEFTVEEYSAPFSDGSEQGNA"}}, "key": {"[1]": {"target": "TNF-α", "conditions": "literature (Wolf et al.); read-out: KD, TNF-α binding to α2M; cited from earlier work"}, "[2]": {"test_system": "ciliary neurotrophic factor", "conditions": "literature (Wolf et al.); cited from earlier work"}, "[3]": {"test_system": "TNF-α", "test": "Nondenaturing PAGE binding of 125I-TNF-α to α2M forms", "conditions": "125I-TNF-α 1 nM, α2M preparation 1.0 μM, 1 h at 37° C", "method": "Nondenaturing PAGE was performed on 5% slabs.\nThe incubation mixtures were then subjected to nondenaturing PAGE, a method that allows recovery of noncovalent as well as covalent α2 M-cytokine complexes. Gonias et al., Ann. […] The TNF-α was detected by autoradiography or Phosphor-Imager analysis.\nCrookston et al, Wollenberg et at., Amer. J. Pathol."}, "[4]": {"test_system": "interferon-γ", "conditions": "literature (Wolf et al.); cited from earlier work"}, "[5]": {"test_system": "LPS-challenged mice", "test": "LPS challenge, MAC pre-treatment, survival", "assay_type": "in vivo, CD-1 female mice", "conditions": "2.5 mg IP 60 min prior to intravenous LPS", "quoted_text": "Survival curves for LPS-challenged mice, with or without MAC pre-treatment.CD-5 female mice were injected EP with 2.5 mg MAC (.box-solid.) or an equivalent volume of PBS (.circle-solid.). After 60 min, the mice were anesthetized and 57 mg/kg LPS were injected intravenously. The mice were monitored for up to 5 days and then sacrificed. Survival data are presented in panel a. In panel b, mice were injected IP with 2.0 mg MAC (Δ), 1.0 mg MAC (.smallcircle.), or 2.5 mg of native human α2 M (.quadrature.). LPS was injected 60 min later.\nCD-1 female mice were obtained from Charles River Breeding Laboratories. Animals were kept on a 12:12 h dark-light cycle. Mice were anesthetized with diethyl ether prior to intravenous injections of LPS. All animals were observed on a continuous basis. Those entering a moribund condition were euthanized by cervical dislocation under anesthesia."}, "[6]": {"test_system": "mice", "test": "Toxicity of IP human MAC in mice", "assay_type": "in vivo", "conditions": "1.0, 2.5 or 5.0 mg IP, 5 days of observation", "method": "Equivalent concentrations of human α2 M (native, unmodified form) were injected IP in separate animals, as a control. Each concentration of MAC or human α2 M was studied in duplicate. […] The animals were sacrificed after 5 days of observation."}}, "data": [{"molecule": "native human α2 M: α2-macroglobulin purified from human plasma, native unmodified form", "values": [{"measurement": "Kd", "setting": "[1]", "value": "5 to 10", "unit": "µM"}, {"measurement": "binding of ciliary neurotrophic factor to α2M", "setting": "[2]", "value": "do not bind"}, {"measurement": "binding of 125I-TNF-α (nondenaturing PAGE)", "setting": "[3]", "value": "not detected"}, {"measurement": "binding of interferon-γ to α2M", "setting": "[4]", "value": "do not bind"}, {"measurement": "animals that died within 24 h (deaths/total)", "setting": "[5]", "value": "4/4"}, {"measurement": "tolerability (neurologic status, respiratory rate, eating and drinking, general behavior)", "setting": "[6]", "value": "without outward changes in physiology"}]}, {"molecule": "B1", "values": [{"measurement": "binding of 125I-TNF-α (nondenaturing PAGE)", "setting": "[3]", "value": "the level of binding was low"}]}]}
